Results published in patent US8507464B2, “Phosphoramidate alkylator prodrugs” (Threshold Pharmaceuticals, Inc., priority 2005, dated 2013).

How the values were obtained:
[1] = system: NCI-H460 cells; assay: Antiproliferation assay - oxygen dependence; format: cell-based, human
Source text: . […] The calculated IC50 values (μM) are tabulated in Table Y1 (H460 cells) or Table Y2 (HT29 cells) below.

[2] = system: NCI-H460 cells; assay: Antiproliferation assay (Alamar Blue), anoxia vs air
[3] = Homo sapiens, NCI-H460, read-out: IC50 in H460 cells, 0.6% O2
[4] = Homo sapiens, NCI-H460, read-out: IC50 in H460 cells, Air
[5] = Homo sapiens, NCI-H460, read-out: IC50 in H460 cells, N2
[6] = Homo sapiens, NCI-H460, 2 h, read-out: IC50 H460 Air
[7] = Homo sapiens, NCI-H460, 2 h, read-out: IC50 H460 Anoxia
[8] = Homo sapiens, NCI-H460, 2 h, read-out: IC50 H460 Air, air, 2 h exposure
[9] = Homo sapiens, NCI-H460, 2 h, read-out: IC50 H460 Anoxia, anoxia, 2 h exposure
[10] = read-out: IC50 H460 Air, air, 2 h exposure
[11] = read-out: IC50 H460 Anoxia, anoxia, 2 h exposure
[12] = Air, read-out: IC50 in H460 cells, Air
[13] = read-out: IC50 in H460 cells, 0.6% O2

Row | SMILES | IC50 [2, 8] [µM] | IC50 [2, 9] [µM] | other results
1 | O=[N+]([O-])c1ccc(COP(=O)(NCCOS(=O)(=O)c2ccccc2)NCCOS(=O)(=O)c2ccccc2)o1 [Compound 106] |  |  | IC50 [1, 3]: 0.7 µM; IC50 [1, 4]: 4 µM; IC50 [1, 5]: 0.1 µM; IC50 [2, 6]: 3.5 µM; IC50 [2, 7]: 0.09 µM
2 | C[C@H](CCl)NP(=O)(N[C@H](C)CCl)OCc1ccc(-c2ccc([N+](=O)[O-])s2)cc1 [Compound 52] | 20 | 15 | IC50 [1, 3]: 10 µM; IC50 [1, 4]: 20 µM
3 | CC(OP(=O)(N[C@H](C)CCl)N[C@H](C)CCl)c1ccc([N+](=O)[O-])s1 (stereo partly shown) [Compound 93] |  |  | IC50 [2, 10]: 3.8 µM; IC50 [2, 11]: 0.1 µM
4 | C[C@@H](CCl)NP(=O)(N[C@@H](C)CCl)OCc1ccc([N+](=O)[O-])o1 [Compound 42] | 9 | 0.5 | 
5 | CC(C)[C@H](CCl)NP(=O)(N[C@@H](CCl)C(C)C)OCc1ccc([N+](=O)[O-])o1 [Compound 43] | 60 | 2 | 
6 | N#Cc1cc(C#CCOP(=O)(NCCBr)NCCBr)sc1[N+](=O)[O-] [Compound 98] |  |  | IC50 [1, 12]: 2 µM; IC50 [1, 13]: 0.5 µM; IC50 [2, 10]: 2 µM; IC50 [2, 11]: 0.1 µM
7 | C[C@@H](CCl)NP(=O)(N[C@@H](C)CCl)OCc1ccc([N+](=O)[O-])s1 [Compound 41] |  |  | IC50 ([2]; read-out: IC50 H460 Air): 7 µM
8 | Cn1c([N+](=O)[O-])nc(Br)c1-c1ccc(COP(=O)(NCCBr)NCCBr)cc1 [Compound 65] |  |  | IC50 [2, 10]: 75 µM; IC50 [2, 11]: 25 µM
9 | Cn1c([N+](=O)[O-])cnc1COc1ccc(COP(N)(=O)N(CCCl)CCCl)cc1 (stereo not shown) [Compound 142] | > 100 | > 40 | 
10 | CC(OP(=O)(NCCBr)NCCBr)c1ccc(-c2ccc([N+](=O)[O-])s2)cc1 (stereo not shown) [Compound 59] | 6 | 2 | 
11 | C[C@@H](CCl)NP(=O)(N[C@@H](C)CCl)OCc1cnc([N+](=O)[O-])n1C [Compound 38] | > 100 | 0.33 | IC50 [1, 3]: 45 µM; IC50 ([1]; Homo sapiens, NCI-H460, read-out: IC50 in H460 cells, 1% O2): > 100 µM; IC50 [1, 5]: 0.4 µM
12 | COc1cc(COP(=O)(N[C@H](C)CCl)N[C@H](C)CCl)ccc1OCc1cnc([N+](=O)[O-])n1C [Compound 54] | 60 | 1 | IC50 [1, 3]: 30 µM; IC50 [1, 4]: 60 µM; IC50 [1, 5]: 1 µM
13 | CC(OP(=O)(NCCBr)NCCBr)c1ccc(OCc2cnc([N+](=O)[O-])n2C)c([N+](=O)[O-])c1 (stereo not shown) [Compound 61] |  |  | IC50 [1, 12]: 4 µM; IC50 ([1]; N2, read-out: IC50 in H460 cells, N2): 0.3 µM; IC50 [1, 13]: 4 µM; IC50 [2, 10]: 4 µM; IC50 [2, 11]: 0.3 µM
14 | Cn1c([N+](=O)[O-])cnc1/C=C/COP1(=O)N(CCCl)CCN1CCCl [Compound 147] | > 100 | > 100 | 
15 | Cn1c(COC(=O)NCCCCOP(=O)(NCCBr)NCCBr)cnc1[N+](=O)[O-] [Compound 69] | > 100 | 71 | 
16 | O=[N+]([O-])c1ccc(COP(=O)(NCCOCCOCCNP(=O)(OCc2ccc([N+](=O)[O-])o2)N(CCCl)CCCl)N(CCCl)CCCl)o1 (stereo not shown) [Compound 140] | 65 | 5 | 
17 | Cn1c(COP(=O)(N2CC2)N2CC2)cnc1[N+](=O)[O-] [Compound 28] | 20 | 0.15 | 
18 | Cn1c(CSCCOP(=O)(NCCBr)NCCBr)cnc1[N+](=O)[O-] [Compound 91] | > 100 |  | 
19 | O=[N+]([O-])c1ccc(COP(=O)(NCCCCCCCCNP(=O)(OCc2ccc([N+](=O)[O-])o2)N(CCCl)CCCl)N(CCCl)CCCl)o1 (stereo not shown) [Compound 139] | 100 | 16 | 
20 | O=[N+]([O-])c1ncc(COP(=O)(NCCBr)NCCBr)n1C1CCCCC1 [Compound 77] | 5.5 | 1.6 | 

Row | SMILES | IC50 [2, 8] [µM] | IC50 [2, 9] [µM] | other results
21 | CC(OP(=O)(NCCCl)NCCCl)c1ncc([N+](=O)[O-])n1C (stereo not shown) [Compound 87] | > 100 | 22 | 
22 | Cn1c(COP(=O)(NCCOS(C)(=O)=O)NCCOS(C)(=O)=O)cnc1[N+](=O)[O-] [Compound 67] | > 100 | 48 | 
23 | CC(OP(=O)(NCCCl)NCCCl)c1ccc([N+](=O)[O-])o1 (stereo not shown) [Compound 104] | 12 | 0.4 | 
24 | CC(OP(=O)(NCCBr)NCCBr)c1ccc(OCc2ccc([N+](=O)[O-])o2)c([N+](=O)[O-])c1 (stereo not shown) [Compound 71] | 0.1 | 0.1 | 
25 | O=[N+]([O-])c1ccsc1COP(=O)(NCCBr)NCCBr [Compound 86] |  |  | IC50 [2, 10]: 3 µM; IC50 [2, 11]: 1.4 µM
26 | O=[N+]([O-])c1ncc(COP(=O)(NCCCl)NCCCl)n1C1CCCCC1 [Compound 76] | > 100 | 9 | 
27 | Cn1c(COC(=O)NC(C)(C)COP2(=O)N(CCBr)CCN2CCBr)cnc1[N+](=O)[O-] [Compound 112] | > 100 | 70 | 
28 | N#Cc1cc(COP(=O)(NCCCl)NCCCl)sc1[N+](=O)[O-] [Compound 96] |  |  | IC50 [2, 10]: 0.1 µM; IC50 [2, 11]: 0.1 µM
29 | O=[N+]([O-])c1sc(COP(=O)(NCCBr)NCCBr)cc1Br [Compound 94] | 2 | 0.3 | 
30 | CC(C)[C@@H](CCl)NP(=O)(N[C@H](CCl)C(C)C)OCc1cnc([N+](=O)[O-])n1C [Compound 48] | > 100 |  | 
31 | CC(C)[C@H](CCl)NP(=O)(N[C@@H](CCl)C(C)C)OCc1cnc([N+](=O)[O-])n1C [Compound 45] | > 100 | 6 | 
32 | O=[N+]([O-])c1ccc(COP(=O)(N(CCCl)CCCl)N(CCCl)CCCl)o1 [Compound 143] | 3.5 | 4.5 | 
33 | C[C@H](CBr)NP(=O)(N[C@H](C)CBr)OCc1ccc([N+](=O)[O-])o1 [Compound 72] | 12 | 0.5 | 
34 | CC(OP(=O)(NCCCl)NCCCl)c1ccc([N+](=O)[O-])s1 (stereo not shown) [Compound 89] | 3.7 | 0.33 | 
35 | CC(C)(C#Cc1ccc([N+](=O)[O-])cc1)OP(N)(=O)N(CCCl)CCCl (stereo not shown) [Compound 117] | 70 | 8 | 
36 | CCCn1c(COP(=O)(NCCCl)NCCCl)cnc1[N+](=O)[O-] [Compound 83] | > 100 | 0.3 | 
37 | CC(=O)NP(=O)(OCc1cnc([N+](=O)[O-])n1C)N(CCCl)CCCl (stereo not shown) [Compound 149] | > 100 | 50 | 
38 | O=[N+]([O-])c1ccc(-c2ccc(OP3(=O)N(CCBr)CCN3CCBr)cc2)s1 [Compound 111] | 100 | 50 | 
39 | COc1cc(C(C)OP(=O)(NCCBr)NCCBr)ccc1OCc1cnc([N+](=O)[O-])n1C (stereo not shown) [Compound 60] | 15 | 15 | 
40 | C[C@H](CCl)NP(=O)(N[C@H](C)CCl)OCc1ccc(-c2ccc([N+](=O)[O-])o2)cc1 [Compound 57] |  |  | IC50 ([2]; read-out: IC50 H460 Anoxia): 14 µM

Row | SMILES | IC50 [2, 8] [µM] | IC50 [2, 9] [µM] | other results
41 | Cn1c(CSCCCCOP(=O)(NCCBr)NCCBr)cnc1[N+](=O)[O-] [Compound 92] | > 100 | > 100 | 
42 | Cn1c(COc2ccc(COP3(=O)N(CCCl)CCCN3CCCl)cc2F)cnc1[N+](=O)[O-] [Compound 33] | 46 | 8 | 
43 | Cn1c(COP(=O)(OCc2cnc([N+](=O)[O-])n2C)N(CCCl)CCCl)cnc1[N+](=O)[O-] [Compound 145] | > 100 | > 100 | 
44 | O=[N+]([O-])c1ccc(C#Cc2ccc(COP(=O)(NCCBr)NCCBr)cc2)s1 [Compound 58] | 10 | 5 | 
45 | O=[N+]([O-])c1ccc(COP(=O)(NCCBr)NCCBr)cc1 [Compound 74] | > 100 | > 100 | 
46 | Cc1cc(C(C)OP(N)(=O)N(CCCl)CCCl)sc1[N+](=O)[O-] (stereo not shown) [Compound 116] | 15 | 0.5 | 
47 | O=[N+]([O-])c1nccn1CCCOP(=O)(NCCBr)NCCBr [Compound 80] | > 100 | > 100 | 
48 | CC(C)(C#Cc1ccc([N+](=O)[O-])s1)COP(N)(=O)N(CCCl)CCCl (stereo not shown) [Compound 115] | 5 | 0.5 | 
49 | O=[N+]([O-])c1ccc(COP(=O)(NCCBr)NCCBr)cc1F [Compound 79] | 3.5 | 3.5 | 
50 | CC(OP(=O)(NCCBr)NCCBr)c1ccc([N+](=O)[O-])o1 (stereo not shown) [Compound 105] | 1 | < 0.1 | 
51 | CC(C)[C@H](CCl)NP(=O)(N[C@@H](CCl)C(C)C)OCc1ccc(OCc2cnc([N+](=O)[O-])n2C)c(F)c1 [Compound 49] |  |  | IC50 ([2]; read-out: IC50 H460 Air): > 100 µM
52 | C[C@H](CCl)NP(=O)(N[C@H](C)CCl)OCc1ccc([N+](=O)[O-])s1 [Compound 39] |  |  | IC50 ([2]; read-out: IC50 H460 Air): 5 µM; IC50 ([2]; read-out: IC50 H460 Anoxia): 0.2 µM
53 | O=[N+]([O-])c1ncc(COP(=O)(NCCBr)NCCBr)n1CC(F)(F)F [Compound 90] | 3.4 | 0.01 | 
54 | O=[N+]([O-])c1ccc(COP(=O)(NCCOS(=O)(=O)c2ccc(Cl)cc2)NCCOS(=O)(=O)c2ccc(Cl)cc2)o1 [Compound 107] |  |  | IC50 [2, 6]: 2.8 µM; IC50 [2, 7]: 0.06 µM
55 | O=[N+]([O-])c1ccc(COP(=O)(NCCBr)NCCBr)c([N+](=O)[O-])c1 [Compound 75] | 26 | 9 | 
56 | COc1cc2c(=O)n(CCN(C)P(=O)(OCc3ccc([N+](=O)[O-])o3)N(CCCl)CCCl)c3c4cc5c(cc4ncc3c2cc1OC)OCO5 (stereo not shown) [Compound 154] | 2 | 0.9 | 
57 | O=[N+]([O-])c1sc(COP(=O)(NCCCl)NCCCl)cc1Br [Compound 95] | 2.7 |  | 
58 | Cn1c(COC(=O)NCCCOP(=O)(NCCBr)NCCBr)cnc1[N+](=O)[O-] [Compound 68] | > 100 | ≥ 100 | 
59 | CN(CCCl)P(=O)(OCc1ccc(OCc2cnc([N+](=O)[O-])n2C)c(F)c1)N(C)CCCl [Compound 150] | 21 |  | 
